Target: T1, Monoamineoxidase B type human-derived enzyme (Homo sapiens, UniProt P27338)
T1 sequence (P27338 1-520): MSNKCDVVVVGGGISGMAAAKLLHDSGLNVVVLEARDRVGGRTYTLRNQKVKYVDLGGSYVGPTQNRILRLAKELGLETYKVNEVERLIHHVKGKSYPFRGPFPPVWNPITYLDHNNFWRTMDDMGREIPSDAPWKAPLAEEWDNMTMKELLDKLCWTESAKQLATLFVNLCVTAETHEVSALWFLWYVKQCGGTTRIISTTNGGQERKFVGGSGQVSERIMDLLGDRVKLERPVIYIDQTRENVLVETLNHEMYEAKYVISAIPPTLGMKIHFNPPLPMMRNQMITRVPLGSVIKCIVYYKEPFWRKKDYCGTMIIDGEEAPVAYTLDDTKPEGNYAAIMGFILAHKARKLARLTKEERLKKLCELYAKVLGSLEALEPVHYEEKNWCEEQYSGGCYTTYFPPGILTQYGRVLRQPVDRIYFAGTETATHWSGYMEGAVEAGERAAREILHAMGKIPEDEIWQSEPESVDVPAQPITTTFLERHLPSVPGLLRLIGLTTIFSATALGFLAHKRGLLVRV
Assay: Inhibitory effects on the activity of MAO-B (Amplex Red fluorescence, benzylamine substrate)
Assay type: biochemical
Settings: treatment concentration 10 nM; read-out: Inhibitory effects (%) on the activity of MAO-B
Method: Monoamineoxidase A or B type human-derived enzyme (5 mg/ml) was each diluted with 0.05 M sodium phosphate buffer (pH 7.4) to yield a dilution of 1:200, and then 100 μl of an enzyme buffer containing 2 μl of a compound 1 solution at the corresponding concentration was placed in a test plate (flat-bottom) and incubated for 30 minutes.
100 μl of a working buffer containing 400 μM of Amplex Red reagent, 2 U/ml horseradish peroxidase, and 2 mM substrate (tyramine for MAO-A and benzylamine for MAO-B) in 0.05 M sodium phosphate buffer (pH 7.4) was mixed with a pre-incubated enzyme buffer at 1:1 and measured using fluorescence (EX: 563 nm & EM: 587 nm) for 30 minutes.

| Structure (SMILES) | inhibition at 0.01 µM |
| --- | --- |
| NC(=O)OCc1cc(-c2ccc(NCc3cccc(F)c3F)cc2)no1 [Example 80, Carbamic acid 3-[4-(2,3-difluoro-benzylamino)-phenyl]-isoxazol-5-ylmethyl ester] | 74.5% |
| NC(=O)OCc1cc(-c2ccc(NCc3cc(F)cc(F)c3)cc2)no1 [Example 82, Carbamic acid 3-[4-(3,5-difluoro-benzylamino)-phenyl]-isoxazol-5-ylmethyl ester] | 56.5% |
| NC(=O)OCc1cc(-c2ccc(NCc3cc(F)ccc3F)cc2)no1 [Example 83, Carbamic acid 3-[4-(2,5-difluoro-benzylamino)-phenyl]-isoxazol-5-ylmethyl ester] | 54.9% |
| NC(=O)OCc1cc(-c2ccc(NCc3ccc(Cl)cc3)cc2)no1 [Example 85, Carbamic acid 3-[4-(4-chloro-benzylamino)-phenyl]-isoxazol-5-ylmethyl ester] | 50.1% |
| NC(=O)OCc1cc(-c2ccc(NCc3ccccc3Cl)cc2)no1 [Example 86, Carbamic acid 3-[4-(2-chloro-benzylamino)-phenyl]-isoxazol-5-ylmethyl ester] | 83.3% |
| NC(=O)OCc1cc(-c2ccc(NCc3cccc(Cl)c3)cc2)no1 [Example 87, Carbamic acid 3-[4-(3-chloro-benzylamino)-phenyl]-isoxazol-5-ylmethyl ester] | 78.6% |
| NC(=O)OCc1cc(-c2ccc(NCc3cccc(Cl)c3Cl)cc2)no1 [Example 88, carbamic acid 3-[4-(2,3-dichloro-benzylamino)-phenyl]-isoxazol-5-ylmethyl ester] | 60% |
| NC(=O)OCc1cc(-c2ccc(NCc3ccc(Cl)cc3Cl)cc2)no1 [Example 89, carbamic acid 3-[4-(2,4-dichloro-benzylamino)-phenyl]-isoxazol-5-ylmethyl ester] | 54.7% |
| NC(=O)OCc1cc(-c2ccc(NCc3cc(Cl)ccc3Cl)cc2)no1 [Example 90, carbamic acid 3-[4-(2,5-dichloro-benzylamino)-phenyl]-isoxazol-5-ylmethyl ester] | 20.3% |
| NC(=O)OCc1cc(-c2ccc(NCc3c(Cl)cccc3Cl)cc2)no1 [Example 91, carbamic acid 3-[4-(2,6-dichloro-benzylamino)-phenyl]-isoxazol-5-ylmethyl ester] | 73.1% |
| NC(=O)OCc1cc(-c2ccc(NCc3ccc(Cl)c(Cl)c3)cc2)no1 [Example 92, carbamic acid 3-[4-(3,4-dichloro-benzylamino)-phenyl]-isoxazol-5-ylmethyl ester] | 75.2% |
| NC(=O)OCc1cc(-c2ccc(NCc3cc(Cl)cc(Cl)c3)cc2)no1 [Example 93, carbamic acid 3-[4-(3,5-dichloro-benzylamino)-phenyl]-isoxazol-5-ylmethyl ester] | 24.1% |
| NC(=O)OCc1cc(-c2ccc(NCc3c(Cl)ccc(Cl)c3Cl)cc2)no1 [Example 95, carbamic acid 3-[4-(2,3,6-trichloro-benzylamino)-phenyl]-isoxazol-5-ylmethyl ester] | 24.3% |
| NC(=O)OCc1cc(-c2ccc(NCc3cccc(C(F)(F)F)c3)cc2)no1 [Example 96, Carbamic acid 3-[4-(3-trifluoromethyl-benzylamino)-phenyl]-isoxazol-5-ylmethyl ester] | 40.9% |
| Cc1ccccc1CNc1ccc(-c2cc(COC(N)=O)on2)cc1 [Example 99, Carbamic acid 3-[4-(2-methyl-benzylamino)-phenyl]-isoxazol-5-ylmethyl ester] | 79.7% |
| Cc1ccc(CNc2ccc(-c3cc(COC(N)=O)on3)cc2)cc1 [Example 100, Carbamic acid 3-[4-(4-methyl-benzylamino)-phenyl]-isoxazol-5-ylmethyl ester] | 23.7% |
| Cc1ccc(CNc2ccc(-c3cc(COC(N)=O)on3)cc2)c(C)c1 [Example 103, Carbamic acid 3-[4-(2,4-dimethyl-benzylamino)-phenyl]-isoxazol-5-ylmethyl ester] | 20.7% |
| COc1cccc(CNc2ccc(-c3cc(COC(N)=O)on3)cc2)c1 [Example 105, Carbamic acid 3-[4-(3-methoxy-benzylamino)-phenyl]-isoxazol-5-ylmethyl ester] | 53.7% |
| Cc1noc(C)c1CNc1ccc(-c2cc(COC(N)=O)on2)cc1 [Example 112, carbamic acid 3-{4-[(3,5-dimethyl-isoxazol-4-ylmethyl)-amino]-phenyl}-isoxazol-5-ylmethyl ester] | 26% |
| CC(OC(N)=O)c1cc(-c2ccc(OCc3ccccc3)cc2)no1 (stereo not drawn) [Example 117, carbamic acid 1-[3-(4-benzyloxy-phenyl)-isoxazol-5-yl]-ethyl ester] | 68.5% |

| Structure (SMILES) | inhibition at 0.01 µM |
| --- | --- |
| NC(=O)OCCc1cc(-c2ccc(OCc3ccccc3)cc2)no1 [Example 118, carbamic acid 2-[3-(4-benzyloxy-phenyl)-isoxazol-5-yl]-ethyl ester] | 25.7% |
| C#CCNCc1cc(-c2ccc(OCc3ccccc3)cc2)no1 [Example 119, [3-(4-benzyloxy-phenyl)-isoxazol-5-ylmethyl]-prop-2-ynyl-amine] | 81.7% |
| O=C(OCc1cc(-c2ccc(OCc3ccccc3)cc2)no1)N1CCCC1 [Example 125, pyrrolidine-1-carboxylic acid 3-(4-benzyloxy-phenyl)-isoxazol-5-ylmethyl ester] | 65.8% |
| O=C(OCc1cc(-c2ccc(OCc3ccccc3)cc2)no1)N1CCCCC1 [Example 126, piperidine-1-carboxylic acid 3-(4-benzyloxy-phenyl)-isoxazol-5-ylmethyl ester] | 48.7% |
| CN(C)NC(=O)OCc1cc(-c2ccc(OCc3ccccc3)cc2)no1 [Example 129, N′,N′-dimethyl-hydrazinecarboxylic acid 3-(4-benzyloxy-phenyl)-isoxazol-5-ylmethyl ester] | 22% |
| OC1CCN(Cc2cc(-c3ccc(OCc4ccccc4)cc3)no2)CC1 [Example 137, 1-[3-(4-benzyloxy-phenyl)-isoxazol-5-ylmethyl]-piperidin-4-ol] | 43.5% |
| NC(=O)OC1CCN(Cc2cc(-c3ccc(OCc4ccccc4)cc3)no2)CC1 [Example 138, Carbamic acid 1-[3-(4-benzyloxy-phenyl)-isoxazol-5-ylmethyl]-piperidin-4-yl ester] | 39.1% |
| c1ccc(COc2ccc(-c3cc(Cn4ccnc4)on3)cc2)cc1 [Example 139, 3-(4-benzyloxy-phenyl)-5-imidazol-1-ylmethyl-isoxazole] | 84.6% |
| Cc1nccn1Cc1cc(-c2ccc(OCc3ccccc3)cc2)no1 [Example 140, 3-(4-benzyloxy-phenyl)-5-(2-methyl-imidazol-1-ylmethyl)-isoxazole] | 91.7% |
| c1ccc(COc2ccc(-c3cc(Cn4cncn4)on3)cc2)cc1 [Example 144, 1-[3-(4-benzyloxy-phenyl)-isoxazol-5-ylmethyl]-1H-[1,2,4]triazole] | 97.3% |
| c1ccc(COc2ccc(-c3cc(Cn4ccnn4)on3)cc2)cc1 [Example 145, 1-[3-(4-benzyloxy-phenyl)-isoxazol-5-ylmethyl]-1H-[1,2,3]triazole] | 39.2% |
| c1ccc(COc2ccc(-c3cc(Cn4ncnn4)on3)cc2)cc1 [Example 146, 2-[3-(4-benzyloxy-phenyl)-isoxazol-5-ylmethyl]-2H-tetrazole] | 86% |
| CN(C)Cc1cc(-c2ccc(OCc3ccccc3)cc2)no1 [Example 150, [3-(4-benzyloxy-phenyl)-isoxazol-5-ylmethyl]-dimethyl-amine] | 97.4% |
| CCN(CC)Cc1cc(-c2ccc(OCc3ccccc3)cc2)no1 [Example 151, [3-(4-benzyloxy-phenyl)-isoxazol-5-ylmethyl]-diethyl-amine] | 96.8% |
| Fc1ccc(COc2ccc(-c3cc(Cn4ccnc4)on3)cc2)c(F)c1 [Example 154, 3-[4-(2,4-difluoro-benzyloxy)-phenyl]-5-imidazol-1-ylmethyl-isoxazole] | 82.7% |
| Fc1cc(F)c(COc2ccc(-c3cc(Cn4ccnc4)on3)cc2)c(F)c1 [Example 155, 5-imidazol-1-ylmethyl-3-[4-(2,4,6-trifluoro-benzyloxy)-phenyl]-isoxazole] | 70.7% |
| Fc1ccc(COc2ccc(-c3cc(Cn4ccnc4)on3)cc2)cc1 [Example 156, 3-[4-(4-fluoro-benzyloxy)-phenyl]-5-imidazol-1-ylmethyl-isoxazole] | 74.5% |
| Clc1ccc(COc2ccc(-c3cc(Cn4ccnc4)on3)cc2)cc1 [Example 157, 3-[4-(4-chloro-benzyloxy)-phenyl]-5-imidazol-1-ylmethyl-isoxazole] | 37.2% |
| NC(=O)C(CO)NCc1cc(-c2ccc(OCc3ccccc3)cc2)no1 (stereo not drawn) [Example 167, 2-{[3-(4-benzyloxy-phenyl)-isoxazol-5-ylmethyl]-amino}-3-hydroxy-propionamide] | 21.8% |

Source: patent US8828992B2, “Substituted azole derivatives, pharmaceutical composition containing the derivatives, and method for treating Parkinson's disease using the same” (priority 2009, dated 2014)
